# Biological target: T1, human glucagon receptor (Homo sapiens, UniProt P47871)
# T1 construct: expressed in transfected cells; host or cells: BHK (baby hamster kidney) cells
# Test: Glucagon Binding Assay (III)
# Conditions: BHK cell membranes, WGA SPA beads, 125I-glucagon; read-out: Glu Bd Assay (III) IC50
# Outline: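 Membranes from BHK cells transfected with the human receptor, prepared at 4 °C, were used in a WGA-bead scintillation proximity binding format. Plates were shaken for 4 hours, left to settle 8–48 hours and then counted. Non-specific binding was defined with 500 nM glucagon.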
# T1 sequence (P47871 26-477): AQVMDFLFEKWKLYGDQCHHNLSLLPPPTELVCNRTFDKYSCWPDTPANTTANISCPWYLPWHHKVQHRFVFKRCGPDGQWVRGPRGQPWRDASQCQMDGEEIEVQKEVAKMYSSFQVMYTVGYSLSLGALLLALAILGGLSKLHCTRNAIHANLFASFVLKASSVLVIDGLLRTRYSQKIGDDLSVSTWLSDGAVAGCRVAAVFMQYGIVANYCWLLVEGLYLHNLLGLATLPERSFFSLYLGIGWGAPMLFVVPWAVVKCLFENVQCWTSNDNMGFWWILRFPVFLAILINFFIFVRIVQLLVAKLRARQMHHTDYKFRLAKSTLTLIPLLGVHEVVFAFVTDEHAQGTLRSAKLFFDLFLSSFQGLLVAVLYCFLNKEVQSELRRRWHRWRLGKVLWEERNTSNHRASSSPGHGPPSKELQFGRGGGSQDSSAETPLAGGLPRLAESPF
row,IC50 [nM],Structure (SMILES)
1,143,"O=C(O)CCNC(=O)c1ccc(CN(C(=O)Nc2ccc(OC(F)(F)F)cc2)[C@H]2CC[C@H](c3ccccc3)CC2)cc1 [Example 81, 3-{4-[1-(4-trans-Phenylcyclohexane)-3-(4-trifluoromethoxyphenyl)ureidomethyl]benzoylamino}propionic acid]"
2,252,O=C(Nc1nn[nH]n1)c1ccc(CN(C(=O)Nc2cccc(S(=O)(=O)C3CCCC3)c2)c2ccc(C3CCCCC3)cc2)cc1 [Example 471]
3,47,"CC(C)(C)C1CCC(N(Cc2ccc(C(=O)Nc3nn[nH]n3)cc2)C(=O)CCCc2ccccc2)CC1 (stereo not drawn) [Example 545, 4-([(4-tert-Butylcyclohexyl)-(4-phenylbutyryl)amino]methyl}-N-(2H-tetrazol-5-yl)benzamide]"
4,6,"CCN(c1ccccc1)S(=O)(=O)c1cc(NC(=O)N(Cc2ccc(C(=O)NCCC(=O)O)cc2)[C@H]2CC[C@H](C3CCCCC3)CC2)ccc1C [Example 390, 3-(4-{1-(trans-4-Cyclohexylcyclohexyl)-3-[3-(N-ethyl-N-phenylsulfamoyl)-4-methylphenyl]ureidomethyl}benzoylamino)propionic acid]"
5,18,"CC(C)(C)C1CCC(N(Cc2ccc(C(=O)Nc3nn[nH]n3)cc2)C(=O)Nc2ccc(OC(F)(F)F)c(S(C)(=O)=O)c2)CC1 (stereo not drawn) [Example 313, 4-[1-(4-tert-Butylcyclohexyl)-3-(3-methylsulfonyl-4-trifluoromethoxyphenyl)ureidomethyl]-N-(2H-tetrazol-5-yl)benzamide]"
6,185,"CCCCc1ccc(N(Cc2ccc(C(=O)Nc3nn[nH]n3)cc2)C(=O)Nc2cccc(C#N)c2)cc1 [Example 281, 4-[1-(4-Butylphenyl)-3-(3-cyanophenyl)ureidomethyl]-N-(2H-tetrazol-5-yl)benzamide]"
7,75,"N#Cc1cccc(NC(=O)N(Cc2ccc(C(=O)Nc3nn[nH]n3)cc2)c2ccc(C3CCCCC3)cc2)c1 [Example 256, 4-[3-(3-Cyanophenyl)-1-(4-cyclohexylphenyl)ureidomethyl]-N-(2H-tetrazol-5-yl)benzamide]"
8,1890,"CCCCNS(=O)(=O)c1ccc(NC(=O)N(Cc2ccc(C(=O)NCCC(=O)O)cc2)[C@H]2CC[C@H](C(C)(C)C)CC2)cc1 [Example 239, 3-{4-[1-(trans-4-tert-Butylcyclohexyl)-3-(4-butylsulfamoylphenyl)ureidomethyl]benzoylamino}propionic acid]"
9,1740,"CC(C)(C)C1CCC(N(Cc2ccc(C(=O)Nc3nn[nH]n3)cc2)C(=O)C2=CCc3ccccc32)CC1 (stereo not drawn) [Example 546, 4-([(4-tert-Butylcyclohexyl)-(3H-indene-1-carbonyl)amino]methyl}-N-(2H-tetrazol-5-yl)benzamide]"
10,119,"O=C(Nc1nn[nH]n1)c1ccc(CN(C(=O)Nc2cc(C(F)(F)F)ccc2C(F)(F)F)c2ccc(C3=CCCCC3)cc2)cc1 [Example 361, 4-[3-(2,5-Bis(trifluoromethyl)phenyl)-1-(4-cyclohex-1-enylphenyl)ureidomethyl]-N-(2H-tetrazol-5-yl)benzamide]"
11,214,"CCS(=O)(=O)c1cccc(NC(=O)N(Cc2ccc(C(=O)Nc3nn[nH]n3)cc2)c2ccc(C(C)(C)C)cc2)c1 [Example 454, 4-[1-(4-tert-Butylphenyl)-3-(3-ethylsulfonylphenyl)ureidomethyl]-N-(2H-tetrazol-5-yl)benzamide]"
12,631,"CS(=O)(=O)c1cccc(NC(=O)N(Cc2ccc(C(=O)NCCC(=O)O)cc2)c2ccc(C3CCCCC3)cc2)c1 [Example 469, 3-{4-[1-(4-Cyclohexylphenyl)-3-(3-methylsulfonylphenyl)ureidomethyl]benzoylamino}propionic acid]"
13,589,"O=C(Nc1nn[nH]n1)c1ccc(CN(C(=O)Cc2ccc(-c3ccccc3)cc2)c2ccc(C3CCCCC3)cc2)cc1 [Example 497, 4-{[(2-Biphenyl-4-yl-acetyl)-(4-cyclohexylphenyl)amino]methyl}-N-(2H-tetrazol-5-yl)benzamide]"
14,103,"CC(C)(C)[C@H]1CC[C@H](N(Cc2ccc(C(=O)NCCC(=O)O)cc2)C(=O)Nc2cc(Cl)c(Cl)c(Cl)c2)CC1 [Example 238, 3-{4-[1-(trans-4-tert-Butylcyclohexyl)-3-(3,4,5-trichlorophenyl)ureidomethyl]benzoylamino}propionic acid]"
15,4200,"CC(C)(C)C1CCC(N(Cc2ccc(C(=O)N(CCC(=O)O)CC3CC3)cc2)C(=O)Nc2ccc(OC(F)(F)F)cc2)CC1 (stereo not drawn) [Example 90, 3-({4-[1-(4-tert-Butylcyclohexyl)-3-(4-trifluoromethoxyphenyl)ureidomethyl]benzoyl}cyclopropylmethyl)aminopropionic acid]"
16,45,"CSc1cccc(NC(=O)N(Cc2ccc(C(=O)Nc3nn[nH]n3)cc2)c2ccc(C(C)(C)C)cc2)c1 [Example 293, 4-[1-(4-tert-Butylphenyl)-3-(3-methylsulfanylphenyl)ureidomethyl]-N-(2H-tetrazol-5-yl)benzamide]"
17,2490,"CC(C)(C)C1CCC(N(Cc2ccc(C(=O)Nc3nn[nH]n3)cc2)C(=O)c2cccc3[nH]ccc23)CC1 (stereo not drawn) [Example 516, 4-{[(4-tert-Butylcyclohexyl)-(1H-indol-4-ylcarbonyl)amino]methyl}-N-(2H-tetrazol-5-yl)benzamide]"
18,1770,"Cc1ccc(NC(=O)N(Cc2ccc(C(=O)NCCS(=O)(=O)O)cc2)c2ccc(C(C)(C)C)cc2)cc1S(C)(=O)=O [Example 569, 2-{4-[1-(4-tert-Butylphenyl)-3-(3-methylsulfonyl-4-methylphenyl)ureidomethyl]-benzoylamino}ethanesulfonic acid]"
19,1680,"CC(=O)c1ccc(NC(=O)N(Cc2ccc(C(=O)NCCC(=O)O)cc2)C2CCC(C(C)(C)C)CC2)cc1 (stereo not drawn) [Example 32, 3-{4-[1-(4-tert-Butylcyclohexyl)-3-(4-acetylphenyl)ureidomethyl]benzoyl}aminopropionic acid]"
20,136,"O=C(Nc1nn[nH]n1)c1ccc(CN(C(=O)Cc2ccc3ccccc3c2)c2ccc(C3CCCCC3)cc2)cc1 [Example 499, 4-{[(4-Cyclohexylphenyl)-(2-naphth-2-ylacetyl)amino]methyl}-N-(2H-tetrazol-5-yl)benzamide]"
21,25,"O=C(Nc1nn[nH]n1)c1ccc(CN(C(=O)Nc2ccc(Cl)c(Cl)c2)c2ccc(C3=CCCCC3)cc2)cc1 [Example 325, 4-[1-(4-Cyclohex-1-enylphenyl)-3-(3,4-dichlorophenyl)ureidomethyl]-N-(2H-tetrazol-5-yl)benzamide]"
22,673,"CC(C)(C)C1CCC(N(Cc2ccc(C(=O)NCCC(=O)O)cc2)C(=O)Nc2ccc(F)c(F)c2)CC1 (stereo not drawn) [Example 72, 3-{4-[1-(4-tert-Butylcyclohexyl)-3-(3,4-difluorophenyl)ureidomethyl]benzoylamino}propionic acid]"
23,604,"O=C(Nc1nn[nH]n1)c1ccc(CN(C(=O)/C=C/c2ccccc2Cl)c2ccc(N3CCCCC3)cc2)cc1 [Example 555, 4-{[[3-(2-Chlorophenyl)acryloyl]-(4-piperidin-1-ylphenyl)amino]methyl}-N-(2H-tetrazol-5-yl)benzamide]"
24,528,"O=C(O)CCNC(=O)c1ccc(CN(C(=O)Nc2ccc(OC(F)(F)F)cc2)C2CCC(Oc3ccccc3)CC2)cc1 (stereo not drawn) [Example 244, 3-{4-[1-(4-Phenoxycyclohexyl)-3-(4-trifluoromethoxyphenyl)ureidomethyl]benzoylamino}propionic acid]"
25,1480,"CCC(C)c1ccc(N(Cc2ccc(C(=O)Nc3nn[nH]n3)cc2)C(=O)Nc2ccc(S(C)(=O)=O)cc2)cc1 (stereo not drawn) [Example 448, 4-[1-(4-sec-Butylphenyl)-3-(4-methylsulfonylphenyl)ureidomethyl]-N-(2H-tetrazol-5-yl)benzamide]"
26,19,"CCCCN1C(=O)c2ccc(NC(=O)N(Cc3ccc(C(=O)Nc4nn[nH]n4)cc3)C3CCC(C(C)(C)C)CC3)cc2C1=O (stereo not drawn) [Example 633, 4-[1-(4-tert-Butylcyclohexyl)-3-(N′-butylphthalimid-4-yl)ureidomethyl]-N-(2H-tetrazol-5-yl)benzamide]"
27,204,"CC(C)(C)C1CCC(N(Cc2ccc(C(=O)Nc3nn[nH]n3)cc2)C(=O)Nc2cccc(S(C)(=O)=O)c2)CC1 (stereo not drawn) [Example 445, 4-[1-(4-tert-Butylcyclohexyl)-3-(3-methylsulfonylphenyl)ureidomethyl]-N-(2H-tetrazol-5-yl)benzamide]"
28,209,"CC(O)c1cccc(NC(=O)N(Cc2ccc(C(=O)Nc3nn[nH]n3)cc2)c2ccc(C3CCCCC3)cc2)c1 (stereo not drawn) [Example 306, 4-{1-(4-Cyclohexylphenyl)-3-[3-(1-hydroxyethyl)phenyl]ureidomethyl}-N-(2H-tetrazol-5-yl)benzamide]"
29,20,"CC(C)(C)c1ccc(N(Cc2ccc(C(=O)Nc3nn[nH]n3)cc2)C(=O)Nc2ccc(SC(F)(F)F)cc2)cc1 [Example 332, 4-[1-(4-tert-Butylphenyl)-3-(4-trifluoromethylsulfanylphenyl)ureidomethyl]-N-(2H-tetrazol-5-yl)benzamide]"

row,Structure (SMILES),IC50 [nM]
1,"CCCCOc1ccc(N(Cc2ccc(C(=O)NCCC(=O)O)cc2)C(=O)Nc2ccc(OC(F)(F)F)cc2)cc1 [Example 435, 3-{4-[1-(4-Butoxyphenyl)-3-(4-trifluoromethoxyphenyl)ureidomethyl]benzoylamino}propionic acid]",374
2,CC(C)(C)C1CCC(N(Cc2ccc(C(=O)Nc3nn[nH]n3)cc2)C(=O)Oc2ccc(S(C)(=O)=O)cc2)CC1 (stereo not drawn) [Example 623],2700
3,"CC(C)(C)C1CCC(N(Cc2ccc(C(=O)NCCC(=O)O)cc2)C(=O)Oc2ccc(-c3ccccc3)cc2)CC1 (stereo not drawn) [Example 398, 3-(4-{[(Biphenyl-4-yloxycarbonyl)-(4-tert-butylcyclohexyl)amino]methyl}benzoylamino)propionic acid]",135
4,"CC(C)c1ccc(NC(=O)N(Cc2ccc(C(=O)NCCC(=O)O)cc2)C2CCC(C(C)(C)C)CC2)cc1 (stereo not drawn) [Example 56, 3-{4-[1-(4-tert-Butylcyclohexyl)-3-(4-isopropylphenyl)ureidomethyl]benzoylamino}propionic acid]",59

# From patent US6875760B2 (Novo Nordisk A/S, priority 1999, dated 2005)
